These results are taken from publication PMC8943889, “Synthetic studies with the brevicidine and laterocidine lipopeptide antibiotics including analogues with enhanced properties and in vivo efficacy” (Chemical Science, 2022).

One may read the MIC as the lowest concentration that inhibits growth of the organism.

The nature of data set [1]: In vivo tolerability study. The following applies: naïve ICR mice, subcutaneous, 40 mg kg^−1 q8h over 24 h (total daily dose 120 mg kg^−1). The method, then:
(§1) In vivo tolerability and efficacy studies
(§2) Ethical Issues. Animal experiments were performed under UK Home Office Licences P89653310 (tolerability and PK) and PA67E0BAA (thigh efficacy), with local ethical committee clearance.
(§3) Animal Strain. Mice used in these studies were supplied by Charles River (Margate UK) and were specific pathogen free. The strain of mice used was ICR (also known as CD1 Mice) which is a well characterized outbred murine strain. Mice (male) were 11-15 g on receipt and were allowed to acclimatise for at least 7 days.
(§4) Animal Housing. Mice were housed in sterilised individual ventilated cages exposing the mice at all times to HEPA filtered sterile air. Mice had free access to food and water and had aspen chip bedding (changed at least once weekly). The room temperature was 22°C +/ - 1°C, with a relative humidity of 60% and maximum background noise of 56 dB. Mice were exposed to 12 h light/dark […]
Test compounds. Compound 6 was dissolved in water for injection in which it formed a clear colourless solution. Polymyxin B was dissolved in saline for injection to produce a clear colourless […]
Tolerability study. The tolerability of compound 6 was assessed in the same mouse strain used for the efficacy studies. Compound 6 was administered via subcutaneous administration route at 3 8-h […]
The mice used in the tolerability study were naïve and were not immunosuppressed or infected. […]

The test system of another data set is P. aeruginosa PAO1. The data set is classed as cell-based. The following applies: PAO1, 16 h. A digest of the protocol:
(§5)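 Colonies from 16 h agar plates were grown in TSB at 37°C to OD600 0.5, diluted in MHB to 2 × 10^5 CFU mL−1 final and mixed with serially diluted lipopeptides. Plates were sealed and shaken 16 h at 37°C; growth was inspected by eye.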

The subject of a further data set is A. baumannii ATCC 17978. The data set is classed as cell-based. The following applies: ATCC 17978, 16 h. A digest of the protocol:
as §5

For the next data set, the system named is K. pneumoniae 2048. The class given is cell-based. Conditions: 2048, 16 h. The gist of the method: as §5
The test system of a further data set is K. pneumoniae JS-123. The class given is cell-based. The following applies: JS-123, 16 h. A digest of the protocol: as §5
The next data set concerns P. aeruginosa M-120. The data set is classed as cell-based. Conditions: M-120, 16 h. A digest of the protocol: as §5
Another data set concerns A. baumannii 2018-006. The class given is cell-based. The following applies: 2018-006, 16 h. A digest of the protocol:
as §5

Another data set concerns P. aeruginosa ATCC 27853. The data set is classed as cell-based. The following applies: ATCC 27853, 16 h. A digest of the protocol: (§6)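 Broth microdilution per CLSI in Mueller-Hinton broth, compounds serially diluted; TSB cultures grown to OD600 0.5 and diluted to 2 × 10^5 CFU mL−1 final. After 16 h at 37°C with shaking, MIC was read visually as lowest concentration preventing visible growth, three technical replicates.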

In another data set the test system is K. pneumoniae ATCC 13883. The data set is classed as cell-based. Conditions: ATCC 13883, 16 h. The gist of the method: as §5
A further data set concerns P. aeruginosa NRZ-03961. The class given is cell-based. Conditions: NRZ-03961, 16 h. The gist of the method: as §5
Another data set relates to A. baumannii ATCC 17961. The data set is classed as cell-based. Conditions: ATCC 17961, 16 h. The gist of the method: as §5
The next data set concerns S. aureus USA300. The class given is cell-based. Conditions: USA300, 16 h. A digest of the protocol: as §6
The subject of another data set is K. pneumoniae ATCC 11228. The data set is classed as cell-based. The following applies: ATCC 11228, 16 h. A digest of the protocol: as §5
Data set [2] relates to E. coli ATCC 25922. The class given is cell-based. A digest of the protocol:
as §5

Data set [3] relates to E. coli ATCC 25922. As to the kind of experiment: Neutropenic mouse thigh infection efficacy study. The class given is in vivo, mice (ICR). The following applies: neutropenic mice. Here is the method: as §1, §2, §3, §4
Test compounds. Compound 6 was dissolved in water for injection in which it formed a clear […]
colourless solution. […]
Compound 6 was administered via subcutaneous administration route at 3 8-h […]
The mice used in the tolerability study were naïve and were not immunosuppressed or infected.
Efficacy study. The in vivo efficacy of compound 6 was assessed in a mouse thigh abscess model where both thighs of each mouse were infected with E. coli ATCC 25922
Immunosuppression. […]
Endpoints. One h and 20.5 (planned 25) h post-infection, the clinical condition of all animals was assessed prior to humane euthanasia using pentobarbitone overdose, and the thighs were removed and weighed. Thigh samples were homogenized in 3mL ice cold sterile PBS; the homogenates were quantitatively cultured onto CLED agar and incubated at 37°C for 18 - 24 h before colonies were […]
Data analysis. The data from the culture burdens were analysed using appropriate non-parametric statistical models (Kruskal-Wallis using Conover-Inman to make all pairwise comparisons between groups) with StatsDirect software v. […]

In brackets after ≈: the same amount, converted by molar mass. Where two headings read alike, the source gives them in different places. Positions of bridges follow the written chain, without caps; N, C: chain ends. Non-standard residues stand in square brackets, D forms with d. Residues, ends and D or L forms follow the SMILES beside them. *: point of attachment. Octanoyl(7-Me) = CC(C)CCCCCC(=O)*; dOrn = NCCC[C@@H](N)C(=O)O; Orn = NCCC[C@H](N)C(=O)O; Dap = NC[C@H](N)C(=O)O Some results are limits rather than exact numbers.

Regarding `CC[C@H](C)[C@@H]1NC(=O)[C@@H](NC(=O)[C@H](Cc2c[nH]c3ccccc23)NC(=O)[C@@H](CCCN)NC(=O)CNC(=O)[C@H](CCCN)NC(=O)[C@@H](CCCN)NC(=O)[C@@H](Cc2c[nH]c3ccccc23)NC(=O)[C@@H](Cc2ccc(O)cc2)NC(=O)[C@@H](CO)NC(=O)CCCCCC(C)C)CNC(=O)CNC(=O)CNC(=O)[C@H](CC(N)=O)NC1=O` [Dap9-Lat (6), Dap9-laterocidamide] ({Octanoyl(7-Me)}-[dS][dY][dW][dOrn][Orn]G[dOrn]W[Dap]INGG; lactam 9-C), the tolerability result in [1] is “well tolerated”; in data set [1] (listed as 6), “good tolerability”. Further, the MIC against P. aeruginosa PAO1 is 1 to 2 µg/mL; against A. baumannii ATCC 17978, 4 µg/mL (≈ 2.52 µM); in the data set with K. pneumoniae 2048, 2 µg/mL (≈ 1.26 µM); with K. pneumoniae JS-123 it was 0.5 µg/mL (≈ 0.314 µM); in the data set on P. aeruginosa M-120, 1 to 2 µg/mL; against A. baumannii 2018-006 it was 4 µg/mL (≈ 2.52 µM). The minimum inhibitory concentration (MIC) was 0.5 to 1 µg/mL against P. aeruginosa ATCC 27853; 2 µg/mL (≈ 1.26 µM) in the data set with K. pneumoniae ATCC 13883; 2 µg/mL (≈ 1.26 µM) with P. aeruginosa NRZ-03961; 4 µg/mL (≈ 2.52 µM) in the data set with A. baumannii ATCC 17961; over 64 µg/mL against S. aureus USA300; 2 µg/mL (≈ 1.26 µM) in the data set with K. pneumoniae ATCC 11228. Further, the minimal inhibitory concentration (MIC) with E. coli ATCC 25922 [2] (ATCC 25922, 16 h) was determined as 1 µg/mL (≈ 0.629 µM); in the data set with E. coli ATCC 25922 [2] (Ec ATCC 25922, broth microdilution (CLSI), MHB, 2 × 10^5 CFU/mL, 16 h 37 °C, visual read-out, three technical replicates), 1.0 µg/mL (≈ 0.629 µM). Besides, in the data set with E. coli ATCC 25922 [3] (E. coli ATCC 25922 thigh infection, 10, 20 and 40 mg kg^−1 SC q8h), the “dose response of thigh burden” value is “clear dose response”. Besides, the “reduction in bacterial load relative to the untreated group” value in the data set with E. coli ATCC 25922 [3] (thigh infection with E. coli ATCC 25922, 40 mg kg^−1 SC q8h starting 1 h post-infection, thigh burden cfu g^−1 at 20.5 h) was about 5 log.
